Data from patent publication US8420811B2, “Tetrahydroisoquinolines and intermediates therefor” (Bristol-Myers Squibb Company, priority 2008, dated 2013).
Converted amounts (≈) assume the structure as drawn.

How the values were obtained:
Type in all cases: physicochemical
[1] = pH-Solubility profile (aqueous solubility); conditions: for solubility: aqueous solution, aqueous buffer
[2] = Solubility profile (USP definition) in solvents
pKa = assay: pKa
Solution pH = conditions: at about 1 μg/mL concentration in water
Distribution coefficient = assay: Distribution coefficient

CN1Cc2cc(-c3ccc(N)nn3)ccc2[C@H](c2ccc3ccccc3c2)C1 [Form N-1, 6-[(4S)-1,2,3,4-tetrahydro-2-methyl-4-(2-naphthalenyl)-7-isoquinolinyl]-3-pyridazinamine]
aqueous solubility (in words) ([1]; general statement, no pH given): high aqueous solubility | Solubility profile (USP definition) ([2]; N,N-dimethylacetamide): soluble: N,N-dimethylacetamide, dimethylsulfoxide | Solubility profile (USP definition) ([2]; PEG 400): sparingly soluble: PEG 400 | Solubility profile (USP definition) ([2]; acetone): slightly soluble: isopropanol, acetone, ethanol, methanol | Solubility profile (USP definition) ([2]; acetonitrile): very slightly soluble: acetonitrile, ethyl acetate, n-butanol | Solubility profile (USP definition) ([2]; dichloromethane): slightly soluble: isopropanol, acetone, ethanol, methanol | Solubility profile (USP definition) ([2]; dimethylsulfoxide): soluble: N,N-dimethylacetamide, dimethylsulfoxide | Solubility profile (USP definition) ([2]; ethanol): slightly soluble: isopropanol, acetone, ethanol, methanol | Solubility profile (USP definition) ([2]; ethyl acetate): very slightly soluble: acetonitrile, ethyl acetate, n-butanol | Solubility profile (USP definition) ([2]; isopropanol): slightly soluble: isopropanol, acetone, ethanol, methanol | Solubility profile (USP definition) ([2]; methanol): slightly soluble: isopropanol, acetone, ethanol, methanol | Solubility profile (USP definition) ([2]; n-butanol): very slightly soluble: acetonitrile, ethyl acetate, n-butanol | Solubility profile (USP definition) ([2]; n-heptane): practically insoluble: n-heptane | Solubility profile (USP definition) ([2]; propylene glycol): slightly soluble: isopropanol, acetone, ethanol, methanol | Solubility profile (USP definition) ([2]; tetrahydrofuran): freely soluble: tetrahydrofuran | pKa (pKa; first of two printed pKa values): 4.9 | pKa (pKa; second of two printed pKa values): 7.8 | Solution pH (Solution pH): ~7.0 at about 1 μg/mL concentration in water | Distribution coefficient Log Do/b (Distribution coefficient; at pH 6.5): 3.10 | Distribution coefficient Log Do/b (Distribution coefficient; at pH 7.4): 3.82

CN1Cc2cc(-c3ccc(N)nn3)ccc2[C@H](c2ccc3ccccc3c2)C1 [Compound 2, (S)-6-(2-methyl-4-(naphthalen-2-yl)-1,2,3,4-tetrahydroisoquinolin-7-yl)pyridazin-3-amine]
solubility ([1]; at pH 2.0): 15600 µg/mL (≈ 42.6 mM) | solubility ([1]; at pH 4.4): 1760 µg/mL (≈ 4.8 mM) | solubility ([1]; at solution pH 6.5 and above): ≤ 1 µg/mL
